Consider 26 molecules from paper PMC5491650, “Structure-Activity Relationships of Pentacyclic Triterpenoids as Potent and Selective Inhibitors against Human Carboxylesterase 1” (Frontiers in Pharmacology, 2017).

The target of one experiment is T1, hCE1 (Homo sapiens, UniProt P23141).
T1 sequence (P23141 18-567): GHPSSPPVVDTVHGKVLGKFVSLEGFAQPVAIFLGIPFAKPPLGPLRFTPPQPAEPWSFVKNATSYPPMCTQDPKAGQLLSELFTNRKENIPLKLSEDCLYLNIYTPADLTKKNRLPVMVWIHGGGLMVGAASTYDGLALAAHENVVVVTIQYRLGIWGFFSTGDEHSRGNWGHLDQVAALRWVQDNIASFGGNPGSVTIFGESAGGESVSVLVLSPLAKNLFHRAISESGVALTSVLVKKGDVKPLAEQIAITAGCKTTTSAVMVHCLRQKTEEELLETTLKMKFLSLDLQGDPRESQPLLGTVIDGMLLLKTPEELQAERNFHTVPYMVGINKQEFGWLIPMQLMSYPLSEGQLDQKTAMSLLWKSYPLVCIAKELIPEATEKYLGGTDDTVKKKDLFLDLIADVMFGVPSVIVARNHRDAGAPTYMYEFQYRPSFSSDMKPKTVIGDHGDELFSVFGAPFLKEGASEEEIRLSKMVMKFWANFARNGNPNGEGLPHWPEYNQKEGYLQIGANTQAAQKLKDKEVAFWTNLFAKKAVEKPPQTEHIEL
Briefly: hCE1 inhibition assay, DME hydrolysis in human liver microsomes.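 Also: carboxylesterase inhibition read out as probe hydrolysis, with DME serving as hCE1 substrate and DDAB as hCE2 substrate, in DMSO below 2% (V/V).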 The experiment is classed as biochemical. Set-up: tissue Celsis (Shanghai, China); host or cells: human liver microsomes (HLM).

The next experiment deals with T2, hCE2 (Homo sapiens, UniProt O00748).
T2 construct: tissue Celsis (Shanghai, China); host or cells: human liver microsomes (HLM)
T2 sequence (O00748 27-559): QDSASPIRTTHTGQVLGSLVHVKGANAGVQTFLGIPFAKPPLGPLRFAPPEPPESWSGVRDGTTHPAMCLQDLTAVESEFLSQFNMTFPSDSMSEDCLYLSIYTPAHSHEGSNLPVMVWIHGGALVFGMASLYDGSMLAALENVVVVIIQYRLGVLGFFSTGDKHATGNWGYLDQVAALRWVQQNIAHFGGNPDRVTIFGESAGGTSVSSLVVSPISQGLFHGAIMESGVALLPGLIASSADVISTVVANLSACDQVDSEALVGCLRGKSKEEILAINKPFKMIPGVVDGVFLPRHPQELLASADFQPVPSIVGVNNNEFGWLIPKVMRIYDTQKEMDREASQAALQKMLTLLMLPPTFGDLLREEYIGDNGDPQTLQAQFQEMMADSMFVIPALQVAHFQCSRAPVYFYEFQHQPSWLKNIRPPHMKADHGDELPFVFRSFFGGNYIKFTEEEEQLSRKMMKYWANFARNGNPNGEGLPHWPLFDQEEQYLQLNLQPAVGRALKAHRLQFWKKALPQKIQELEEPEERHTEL
The experiment can be described thus: hCE2 inhibition assay, DDAB hydrolysis in human liver microsomes. The experiment is classed as biochemical.

Where [1] appears, read: DME as probe substrate, HLM, averages of at least three experiments, read-out: IC50 (hCE1).
[2] abbreviates: log of the experimental IC50 in μM, used for 3D-QSAR.
Where [3] appears, read: DDAB as probe substrate, HLM, averages of at least three experiments, read-out: IC50 (hCE2).

Read-outs that look alike come from different tables or passages of the source. A value given as a limit tells only on which side of the number the result lay.

Method for hCE1: (§1) All fluorescence-based assays were performed on Synergy H^1 Hybrid Multi-Mode Microplate Reader (BioTek, USA).
(§2) The inhibitory effects toward CEs were assayed using DME and DDAB as the specific probe substrates for hCE1 and hCE2, respectively. […] Control incubations without BNPP were also performed. After incubation, ice-cold acetonitrile (equal volume of incubation mixture, 200 μL) was added to terminate the reaction. The mixture was then centrifuged at 20,000 g for 20 min at 4°C. All these compounds dissolved in DMSO, and the final concentration of DMSO was <2% (V/V). Aliquots of the supernatant were then taken for further microplate reader analyses. […] First, each of the potential esterase inhibitors was pre-incubated with HLM at 37°C for 10 min with shaking in microplate reader. Then DME was added to start the reaction. After incubation at 37°C for 10 min in a shaking bath, LDR (equal volume of incubation mixture, 50 μL) was added to terminate the reaction, and luminescence measurements were conducted as described above.
Method for hCE2: as §1, §2

For the molecule `CC1(C)CC[C@]2(C(=O)O)CC[C@]3(C)C(=CC[C@@H]4[C@@]5(C)CC[C@H](O)C(C)(C)[C@@H]5CC[C@]43C)[C@@H]2C1` [Compound 1, oleanolic acid], the IC50 on hCE1 (setting [1]) was 0.28 µM. Further, at hCE1 (setting [2]), the “Observed Log(IC50_hCE1)” value was -0.5528 μM.

For the molecule `C[C@H]1[C@H](C)CC[C@]2(C(=O)O)CC[C@]3(C)C(=CC[C@@H]4[C@@]5(C)CC[C@H](O)C(C)(C)[C@@H]5CC[C@]43C)[C@H]12` [Compound 2, ursolic acid], the IC50 on hCE1 (setting [1]) stood at 0.24 µM. Further, on hCE1 (setting [2]), the “Observed Log(IC50_hCE1)” value was -0.6198 μM.

For the molecule `CC1(C)CCC2(C(=O)O)C(O)CC3(C)C(=CCC4C5(C)CC(O)C(O)C(C)(CO)C5CCC43C)C2C1` (stereo not drawn) [Compound 3, polygalacic acid], the IC50 was over 100 µM at hCE2 (setting [3]) and 64.7 µM at hCE1 (setting [1]). The “Observed Log(IC50_hCE1)” value at hCE1 (setting [2]) amounted to 1.811 μM.

For the molecule `CC1(C)[C@@H](O)CC[C@]2(C)[C@H]3C(=O)C=C4[C@@H]5C[C@@](C)(C(=O)O)CC[C@]5(C)CC[C@@]4(C)[C@]3(C)CC[C@@H]12` [Compound 4, glycyrrhetic acid], on hCE1 (setting [1]), the half-inhibitory concentration (IC50) is 13 µM. Besides, the “Observed Log(IC50_hCE1)” value at hCE1 (setting [2]) is recorded as 1.1126 μM.

As for `C[C@H]1[C@H](C)CC[C@]2(C)CC[C@]3(C)C(=CC[C@@H]4[C@@]5(C)CC[C@@H](O)[C@](C)(C(=O)O)[C@@H]5CC[C@]43C)[C@H]12` [Compound 5, β-boswellic acid], the IC50 at hCE1 (setting [1]) was over 400 µM.

As for `C[C@H]1[C@H](C)CC[C@]2(C)CC[C@]3(C)C(=CC(=O)[C@@H]4[C@@]5(C)CC[C@@H](O)[C@](C)(C(=O)O)[C@@H]5CC[C@]43C)[C@H]12` [Compound 6, 11-keto-β-boswellic acid], the IC50 at hCE1 (setting [1]) was found to be 124 µM. Moreover, the “Observed Log(IC50_hCE1)” value on hCE1 (setting [2]) is listed as 2.092 μM.

Turning to `CC1=C(O)C(=O)C=C2C1=CC=C1[C@@]2(C)CC[C@@]2(C)[C@@H]3C[C@](C)(C(=O)O)CC[C@]3(C)CC[C@]12C` [Compound 7, celastrol], on hCE1 (setting [1]), the half-inhibitory concentration (IC50) is 4.43 µM. Besides, the “Observed Log(IC50_hCE1)” value on hCE1 (setting [2]) is 0.6464 μM.

With `CC(C)=CCCC(C)(O)C1CCC2(C)C1C(O)CC1C3(C)CCC(O)C(C)(C)C3CCC12C` (stereo not drawn) [Compound 8], at hCE1 (setting [1]), the IC50 was over 500 µM.

In the case of `CC(C)=CCCC(C)(O)C1CCC2(C)C1C(O)CC1C3(C)CCC(O)C(C)(C)C3C(O)CC12C` (stereo not drawn) [Compound 9], the half-inhibitory concentration (IC50) at hCE1 (setting [1]) is over 500 µM.

Turning to `C=C(CCC(C(=O)O)C1C(O)CC2(C)C3=C(CCC12C)C1(C)CCC(OC(C)=O)C(C)(C)C1CC3)C(C)C` (stereo not drawn) [Compound 10], the IC50 at hCE1 (setting [1]) stood at 21.7 µM. For the same molecule, the “Observed Log(IC50_hCE1)” value at hCE1 (setting [2]) is given as 1.337 μM.

Turning to `C=C(CCC(C(=O)O)C1C(O)CC2(C)C3=CCC4C(C)(CCC(OC(C)=O)C4(C)C)C3=CCC12C)C(C)C` (stereo not drawn) [Compound 11], the IC50 on hCE2 (setting [3]) was over 100 µM; at hCE1 (setting [1]), 27.6 µM. In addition, the “Observed Log(IC50_hCE1)” value on hCE1 (setting [2]) was found to be 1.441 μM.

As to `C=C(CCC(C(=O)O)C1C(O)CC2(C)C3=CCC4C(C)(C)C(=O)CCC4(C)C3=CCC12C)C(C)C` (stereo not drawn) [Compound 12], the values for the IC50 at hCE2 (setting [3]) and at hCE1 (setting [1]) were over 100 µM and 58.6 µM, respectively. The “Observed Log(IC50_hCE1)” value at hCE1 (setting [2]) was found to be 1.7679 μM.

On to `C[C@H](CC(=O)C[C@@H](C)[C@H]1C[C@H](O)[C@@]2(C)C3=C(C(=O)C[C@]12C)[C@@]1(C)CCC(=O)C(C)(C)[C@@H]1C[C@@H]3O)C(=O)O` [Compound 13], for which the IC50 is over 100 µM on hCE2 and over 400 µM against hCE1.

Consider `C[C@H](CC(=O)C[C@@H](C)[C@H]1CC(=O)[C@@]2(C)C3=C(C(=O)C[C@]12C)[C@@]1(C)CC[C@H](O)C(C)(C)[C@@H]1C[C@@H]3O)C(=O)O` [Compound 14], for which the IC50 at hCE2 (setting [3]) was over 100 µM; on hCE1 (setting [1]), over 400 µM.

For the molecule `CC1(C)CCC2(C(=O)O)CCC3(C)C(=CCC4C5(C)CCC(=O)C(C)(C)C5CCC43C)C2C1` (stereo not drawn) [Compound 15, 3-oxo-olean-12-en-28-oic acid], the IC50 on hCE2 (setting [3]) is 16.1 µM. On hCE1, the “Observed Log(IC50_hCE1)” value is on record as -0.8861 μM and the Selectivity was found to be 123.07. Besides, the IC50 at hCE1 (setting [1]) was 0.13 µM.

As to `CC1(C)CCC2(CO)CCC3(C)C(=CCC4C5(C)CCC(O)C(C)(C)C5CCC43C)C2C1` (stereo not drawn) [Compound 16, 3β-olean-12-ene-3,28-diol], the IC50 at hCE2 (setting [3]) came out at 6.12 µM; at hCE1 (setting [1]) it was 2.41 µM. The “Observed Log(IC50_hCE1)” value on hCE1 (setting [2]) worked out at 0.382 μM.

`COC(=O)C12CCC(C)(C)CC1C1=CCC3C4(C)CCC(O)C(C)(C)C4CCC3(C)C1(C)CC2` (stereo not drawn) [Compound 17, 3β-hydroxy-olean-12-en-28-oic acidmethyl ester]: the 50% inhibitory concentration (IC50) at hCE2 (setting [3]) stood at 5.7 µM; at hCE1 (setting [1]), 6.23 µM. In addition, the “Observed Log(IC50_hCE1)” value on hCE1 (setting [2]) worked out at 0.7945 μM.

In the case of `CC1(C)CCC2(C(N)=O)CCC3(C)C(=CCC4C5(C)CCC(O)C(C)(C)C5CCC43C)C2C1` (stereo not drawn) [Compound 18, 3β-hydroxy-olean-12-en-28-amide], the IC50 on hCE2 (setting [3]) was 4.11 µM; at hCE1 (setting [1]), 3.21 µM. For the same molecule, the “Observed Log(IC50_hCE1)” value on hCE1 (setting [2]) was found to be 0.5065 μM.

On to `CC(=O)OC1CCC2(C)C(CCC3(C)C2CC=C2C4CC(C)(C)CCC4(C(=O)O)CCC23C)C1(C)C` (stereo not drawn) [Compound 19, 3β-O-acetyl-olean-12-en-28-oic acid], for which the values for the IC50 on hCE2 (setting [3]) and at hCE1 (setting [1]) were 10.2 µM and 0.19 µM, respectively. Moreover, the “Observed Log(IC50_hCE1)” value at hCE1 (setting [2]) is listed as -0.7212 μM.

`CC1(C)CCC2(C(=O)O)CCC3(C)C(=CCC4C5(C)CCC(OC(=O)CCC(=O)O)C(C)(C)C5CCC43C)C2C1` (stereo not drawn) [Compound 20, 3β-O-(β-carboxypropionyl)-olean-12-en-28-oic acid]: the IC50 is 56 µM on hCE2 (setting [3]) and 0.017 µM on hCE1 (setting [1]). The “selectivity over hCE2” value at hCE1 (hCE1 versus hCE2, values of the text) came to 3296 fold. Further, on hCE1 (setting [2]), the “Observed Log(IC50_hCE1)” value was -1.77 μM.

As for `CC1CCC2(C(=O)O)CCC3(C)C(=CCC4C5(C)CCC(=O)C(C)(C)C5CCC43C)C2C1C` (stereo not drawn) [Compound 21, 3-oxo-urs-12-en-28-oic acid], the IC50 at hCE2 (setting [3]) stood at 9.56 µM; at hCE1 (setting [1]), 0.037 µM. Besides, the “Observed Log(IC50_hCE1)” value on hCE1 (setting [2]) is listed as -1.4318 μM.

In the case of `COC(=O)C12CCC(C)C(C)C1C1=CCC3C4(C)CCC(O)C(C)(C)C4CCC3(C)C1(C)CC2` (stereo not drawn) [Compound 23, 3β-hydroxy-urs-12-en-28-oic acid methyl ester], the results for the IC50 at hCE2 (setting [3]) and on hCE1 (setting [1]) were 11.9 µM and 1.83 µM, respectively. Further, the “Observed Log(IC50_hCE1)” value on hCE1 (setting [2]) came to 0.2625 μM.

For `COC(=O)C12CCC(C)C(C)C1C1=CCC3C4(C)CCC(=O)C(C)(C)C4CCC3(C)C1(C)CC2` (stereo not drawn) [Compound 24, 3-oxo-urs-12-en-28-oic acid methyl ester], the results for the IC50 at hCE2 (setting [3]) and on hCE1 (setting [1]) were over 100 µM and 0.9 µM, respectively. In addition, at hCE1 (setting [2]), the “Observed Log(IC50_hCE1)” value is reported as -0.04576 μM.

In the case of `COC(=O)C12CCC(C)C(C)C1C1=CC(=O)C3C4(C)CCC(=O)C(C)(C)C4CCC3(C)C1(C)CC2` (stereo not drawn) [Compound 25, 3,11-dioxo-urs-12-en-28-oic acid methyl ester], the IC50 on hCE2 (setting [3]) worked out at 11.9 µM; on hCE1 (setting [1]), 33.2 µM. Besides, the “Observed Log(IC50_hCE1)” value on hCE1 (setting [2]) was 1.521 μM.

In turn, `CC1(C(=O)O)CCC2(C)CCC3(C)C(=CCC4C5(C)CCC(O)C(C)(C)C5CCC43C)C2C1` (stereo not drawn) [Compound 26] came in with an IC50 on hCE1 (IC50 (hCE1), DME as probe substrate, HLM, averages of at least three experiments) of 8.94 µM. The “Observed Log(IC50_hCE1)” value at hCE1 (setting [2]) stood at 0.9513 μM.

With `O=[N+]([O-])c1ccc(OP(=O)(O)Oc2ccc([N+](=O)[O-])cc2)cc1` [Compound 28, Bis-p-nitrophenyl phosphate, reference compound], the IC50 at hCE1 (setting [1]) worked out at 0.031 µM.
